Assay: xn = mol fraction of the nth substance listed

CCCC[P+](CC)(CC)CC.N#Cc1ccc[n-]1 + OCC(O)CO
100 kPa
Settings	electrical conductivity, 293.15 K [S/m]	viscosity, 293.15 K [mPa·s]	viscosity, 298.15 K [mPa·s]	viscosity, 303.15 K [mPa·s]	viscosity, 313.15 K [mPa·s]
x1 = 0.002	0.0013	–	–	–	–
x1 = 0.004	0.0027	1395	880	562	226
x1 = 0.006	0.0041	–	–	–	–
x1 = 0.008	0.0055	–	–	–	–
x1 = 0.011	0.0073	–	–	–	–
x1 = 0.014	0.009	–	–	–	–
x1 = 0.018	0.0106	1500	950	599	234
x1 = 0.021	0.0118	–	–	–	–
x1 = 0.026	0.0135	–	–	–	–
x1 = 0.029	0.0143	–	–	–	–
x1 = 0.033	0.0151	–	–	–	–
x1 = 0.04	0.0162	1598	1015	648	256
x1 = 0.047	0.0175	–	–	–	–
x1 = 0.058	0.0181	1701	1080	690	282
x1 = 0.068	0.0188	–	–	–	–
x1 = 0.08	0.0186	1713	1086	690	277
x1 = 0.104	0.0187	1609	1023	655	268
x1 = 0.129	0.0185	1486	930	569	222
x1 = 0.187	0.018	1202	770	483	200
x1 = 0.259	0.0182	930	603	386	166
x1 = 0.34	0.0225	740	487	318	142
x1 = 0.442	0.0297	589	398	265	123
x1 = 0.577	0.0413	479	323	220	107
x1 = 0.743	0.0623	359	242	168	81
x1 = 0.85	0.0878	250	175	123	62
x1 = 1	0.147	187	137	104	62

CCC[n+]1ccn(C)c1.C[C@H](N)C(=O)[O-] + O
viscosity [mPa·s], 100.3 kPa
Settings	288.15 K	293.15 K	298.15 K	303.15 K	308.15 K	313.15 K	318.15 K	323.15 K	328.15 K
x1 = 0.0003008	1.156	1.017	0.9	0.81	0.727	0.661	0.604	0.554	0.511
x1 = 0.0003999	1.162	1.022	0.907	0.813	0.732	0.664	0.606	0.557	0.513
x1 = 0.0004953	1.167	1.027	0.911	0.817	0.735	0.666	0.608	0.559	0.516
x1 = 0.001005	1.203	1.057	0.938	0.838	0.755	0.685	0.626	0.573	0.529
x1 = 0.003004	1.362	1.197	1.057	0.939	0.842	0.759	0.688	0.629	–
x1 = 0.004999	1.513	1.326	1.163	1.028	0.917	0.828	0.749	0.685	–
x1 = 0.007004	1.658	1.447	1.273	1.119	0.998	0.894	0.806	0.736	–
x1 = 0.008999	1.822	1.576	1.368	1.21	1.071	0.959	0.868	0.781	–
x1 = 0.011	1.958	1.698	1.478	1.302	1.147	1.027	0.929	0.832	–
x1 = 0.01301	2.101	1.819	1.581	1.38	1.225	1.089	0.986	0.888	–
x1 = 0.015	2.247	1.941	1.678	1.469	1.293	1.157	1.037	0.932	–
x1 = 0.01799	2.46	2.109	1.826	1.599	1.394	1.254	1.115	1	–
